Assay results as given in US20250346564A1 (ARase Therapeutics Inc., priority 2022, published 2025).

What follows are compounds tested against PARG (Homo sapiens (Human), UniProt Q86W56) (assay: PARG TFMU assay (4-(trifluoromethyl)umbelliferone substrate)). Details: PARG 250 pM or 2 nM, 10-point dose response.
PARG, sequence (Q86W56 whole entry): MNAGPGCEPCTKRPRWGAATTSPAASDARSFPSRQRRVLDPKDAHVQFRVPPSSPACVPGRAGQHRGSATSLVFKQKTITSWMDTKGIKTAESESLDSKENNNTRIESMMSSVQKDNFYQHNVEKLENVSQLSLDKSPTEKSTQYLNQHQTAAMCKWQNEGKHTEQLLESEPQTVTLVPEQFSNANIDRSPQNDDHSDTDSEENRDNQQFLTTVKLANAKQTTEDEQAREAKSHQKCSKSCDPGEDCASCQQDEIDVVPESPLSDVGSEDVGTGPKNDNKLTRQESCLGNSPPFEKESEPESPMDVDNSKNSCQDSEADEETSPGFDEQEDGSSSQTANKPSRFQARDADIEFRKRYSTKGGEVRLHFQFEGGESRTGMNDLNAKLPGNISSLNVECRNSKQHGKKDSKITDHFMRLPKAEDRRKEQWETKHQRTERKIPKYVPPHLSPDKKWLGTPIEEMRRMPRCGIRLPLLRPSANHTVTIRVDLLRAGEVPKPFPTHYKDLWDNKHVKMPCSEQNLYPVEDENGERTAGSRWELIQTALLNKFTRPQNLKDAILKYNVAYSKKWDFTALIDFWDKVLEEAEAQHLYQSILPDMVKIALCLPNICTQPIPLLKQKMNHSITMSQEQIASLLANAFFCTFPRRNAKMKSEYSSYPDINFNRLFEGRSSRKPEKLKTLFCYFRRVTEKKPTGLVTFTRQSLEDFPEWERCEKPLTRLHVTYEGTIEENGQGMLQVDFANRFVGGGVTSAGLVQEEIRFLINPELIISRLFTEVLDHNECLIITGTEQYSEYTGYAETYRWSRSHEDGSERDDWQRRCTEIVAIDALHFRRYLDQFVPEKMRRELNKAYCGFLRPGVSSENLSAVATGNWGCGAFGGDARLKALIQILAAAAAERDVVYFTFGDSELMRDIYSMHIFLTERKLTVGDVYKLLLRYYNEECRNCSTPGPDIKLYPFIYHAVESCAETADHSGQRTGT
Assay type: biochemical
Protocol: Example C. Inhibition of PARG TEMU Assay
The ability of the compounds of the Examples to inhibit PARG activity in 4. (trifluoromethyl)umbelliferone (TFMU) assay was determined as described below. PARG inhibitors were added into 384 well plate for a 10-point dose response curve at 1:3 dilutions. TFMU PARG substrate and PARG (250 pM or 2 nM) were then added to the plate to initiate enzymatic reaction. After incubation with the reagent, […] was read. IC50 values were calculated using set control points for 100% inhibition as no enzyme and 0% inhibition 250 pM or 2 nM of PARG enzyme.
In the case of `CC(C)C(=O)N1CCN(c2cc(S(=O)(=O)NC3(C#N)COC3C)cc3c2cnn3-c2nnc(C(F)F)s2)CC1` (stereo not shown) [Example 32, N-(3-cyano-2-methyloxetan-3-yl)-1-(5-(difluoromethyl)-1,3,4-thiadiazol-2-yl)-4-(4-isobutyrylpiperazin-1-yl)-1H-indazole-6-sulfonamide], the IC50 is reported as 50 to 500 nM.
With `C=Cc1nnc(-n2ncc3c(N4CCN(C(=O)C(C)C)CC4)cc(S(=O)(=O)NC4(CF)COC4)cc32)s1` [Example 47, N-(3-(fluoromethyl)oxetan-3-yl)-4-(4-isobutyrylpiperazin-1-yl)-1-(5-vinyl-1,3,4-thiadiazol-2-yl)-1H-indazole-6-sulfonamide] the IC50 was under 50 nM.
In the case of `CC1OCC1(C)NS(=O)(=O)c1cc(Cl)c2cnn(-c3nnc(C(F)F)s3)c2c1` (stereo not shown) [Example 71, 4-chloro-1-(5-(difluoromethyl)-1,3,4-thiadiazol-2-yl)-N-(2,3-dimethyloxetan-3-yl)-1H-indazole-6-sulfonamide], the IC50 is reported as 50 to 500 nM.
For `CC(C)C(=O)N1CCN(c2cc(S(=O)(=O)NC3(CF)COC3)cc3c2cnn3-c2nnc(C3CC3)s2)CC1` [Example 43, 1-(5-cyclopropyl-1,3,4-thiadiazol-2-yl)-N-(3-(fluoromethyl)oxetan-3-yl)-4-(4-isobutyrylpiperazin-1-yl)-1H-indazole-6-sulfonamide], the IC50 was under 50 nM.
`C=C[C@@H]1C[C@@]1(C#N)NS(=O)(=O)c1ccc2c(c1)c(=O)n(CC)c(=O)n2CC` (single isomer, unassigned) [Example 52] showed an IC50 of at least 5000 nM.
For `CC(C)C(=O)N1CCN(c2cc(S(=O)(=O)NC3(C)COC3)cc3c2cnn3-c2nnc(C(F)F)s2)C[C@@H]1C` (single isomer, unassigned) [Example 79], the IC50 was under 50 nM.
Compound `CC1(NS(=O)(=O)c2cc(Cl)c3cnn(-c4nnc(C(F)F)s4)c3c2)COC1` [Example 24] has an IC50 of 50 to 500 nM.
`CC(C)C(=O)N1CCN(c2cc([S@TB20](=O)(=O)NC3(CF)COC3)cc3c2cnn3-c2nnc(C(F)F)s2)CC1` [Example 22, 1-(5-(difluoromethyl)-1,3,4-thiadiazol-2-yl)-N-(3-(fluoromethyl)oxetan-3-yl)-4-(4-isobutyrylpiperazin-1-yl)-1H-indazole-6-sulfonamide] was tested, and the IC50 was under 50 nM.
`Cc1ncc(Cn2c(=O)c3cc(S(=O)(=O)NC4(C#N)COC4)ccc3n(Cc3sc(C)nc3C)c2=O)s1` [Example 25B, N-(3-cyanooxetan-3-yl)-1-((2,4-dimethylthiazol-5-yl)methyl)-3-((2-methylthiazol-5-yl)methyl)-2,4-dioxo-1,2,3,4-tetrahydroquinazoline-6-sulfonamide] gave an IC50 of 50 to 500 nM.
`CC(C)C(=O)N1CCN(c2cc(S(=O)(=O)NC3(CF)COC3)cc3c2cnn3-c2nncs2)CC1` [Example 44, N-(3-(fluoromethyl)oxetan-3-yl)-4-(4-isobutyrylpiperazin-1-yl)-1-(1,3,4-thiadiazol-2-yl)-1H-indazole-6-sulfonamide] showed an IC50 of under 50 nM.
`CC(C)C(=O)N1CCN(c2cc(S(=O)(=O)NC3(C)COC3)cc3c2cnn3-c2nncs2)CC1` [Example 46, 4-(4-isobutyrylpiperazin-1-yl)-N-(3-methyloxetan-3-yl)-1-(1,3,4-thiadiazol-2-yl)-1H-indazole-6-sulfonamide] gave an IC50 of under 50 nM.
`C=Cc1nnc(-n2ncc3c(N4CCN(C(=O)C(C)C)CC4)cc(S(=O)(=O)NC4(C)COC4)cc32)s1` [Example 80, 4-(4-isobutyrylpiperazin-1-yl)-N-(3-methyloxetan-3-yl)-1-(5-vinyl-1,3,4-thiadiazol-2-yl)-1H-indazole-6-sulfonamide] was tested, and the IC50 was under 50 nM.
`CC1(NS(=O)(=O)c2ccc3cnn(-c4nnc(C(F)F)s4)c3c2)COC1` [Example 23, 1-(5-(difluoromethyl)-1,3,4-thiadiazol-2-yl)-N-(3-methyloxetan-3-yl)-1H-indazole-6-sulfonamide] was tested, and the IC50 was 50 to 500 nM.
`Cn1ncc2ccc(S(=O)(=O)NC3(C)COC3)cc21` [Example 72, 1-methyl-N-(3-methyloxetan-3-yl)-1H-indazole-6-sulfonamide] gave an IC50 of at least 5000 nM.
`CC1(NS(=O)(=O)c2cc(N3CCN(C(=O)C4CCCC4)CC3)c3cnn(-c4nnc(C(F)F)s4)c3c2)COC1` [Example 76, 4-(4-(cyclopentanecarbonyl)piperazin-1-yl)-1-(5-(difluoromethyl)-1,3,4-thiadiazol-2-yl)-N-(3-methyloxetan-3-yl)-1H-indazole-6-sulfonamide] was tested, and the IC50 was under 50 nM.
With `CC(C)C(=O)N1CCN(c2cc(S(=O)(=O)NC3(C)COC3)cc3c2cnn3-c2nnc(CS(C)(=O)=O)s2)CC1` [Example 31, 4-(4-isobutyrylpiperazin-1-yl)-N-(3-methyloxetan-3-yl)-1-(5-((methylsulfonyl)methyl)-1,3,4-thiadiazol-2-yl)-1H-indazole-6-sulfonamide] the IC50 was under 50 nM.
Work on `N#CC1(NS(=O)(=O)c2cc(N3CCN(C(=O)C4CCCC4)CC3)c3cnn(-c4nnc(C(F)F)s4)c3c2)COC1` [Example 40, N-(3-cyanooxetan-3-yl)-4-(4-(cyclopentanecarbonyl)piperazin-1-yl)-1-(5-(difluoromethyl)-1,3,4-thiadiazol-2-yl)-1H-indazole-6-sulfonamide] yielded an IC50 of under 50 nM.
Work on `N#CC1(NS(=O)(=O)c2cc(Cl)c3cnn(-c4nnc(C(F)F)s4)c3c2)COC1` [Example 63, 4-chloro-N-(3-cyanooxetan-3-yl)-1-(5-(difluoromethyl)-1,3,4-thiadiazol-2-yl)-1H-indazole-6-sulfonamide] yielded an IC50 of 500 to 5000 nM.
With `CCn1c(=O)c2cc(S(=O)(=O)N[C@@H]3CC[C@H]3CO)ccc2n(CC)c1=O` (single isomer, unassigned) [Example 74] the IC50 was at least 5000 nM.
In the case of `Cc1nnc(-n2ncc3c(N4CCN(C(=O)C(C)C)CC4)cc(S(=O)(=O)NC4(C)COC4)cc32)s1` [Example 45, 4-(4-isobutyrylpiperazin-1-yl)-1-(5-methyl-1,3,4-thiadiazol-2-yl)-N-(3-methyloxetan-3-yl)-1H-indazole-6-sulfonamide], the IC50 is reported as under 50 nM.
Compound `CC1(NS(=O)(=O)c2cc(Cl)c3cnn(-c4nnc(C(F)F)s4)c3c2)CC1CCO` (stereo not shown) [Example 65, 4-chloro-1-(5-(difluoromethyl)-1,3,4-thiadiazol-2-yl)-N-(2-(2-hydroxyethyl)-1-methylcyclopropyl)-1H-indazole-6-sulfonamide] has an IC50 of 500 to 5000 nM.
With `C=C[C@@H]1C[C@]1(C#N)NS(=O)(=O)c1ccc2c(c1)c(=O)n(CC)c(=O)n2CC` (single isomer, unassigned) [Example 51] the IC50 was at least 5000 nM.
`CC(C)C(=O)N1CCN(c2cc(S(=O)(=O)NC3COC3)cc3c2cnn3-c2nnc(C(F)F)s2)CC1` [Example 29, 1-(5-(difluoromethyl)-1,3,4-thiadiazol-2-yl)-4-(4-isobutyrylpiperazin-1-yl)-N-(oxetan-3-yl)-1H-indazole-6-sulfonamide] was tested, and the IC50 was 50 to 500 nM.
Work on `Cc1ncc(Cn2c(=O)c3cc(S(=O)(=O)NC4(CF)COC4)ccc3n(Cc3sc(C)nc3C)c2=O)s1` [Example 28B, 1-((2,4-dimethylthiazol-5-yl)methyl)-N-(3-(fluoromethyl)oxetan-3-yl)-3-((2-methylthiazol-5-yl)methyl)-2,4-dioxo-1,2,3,4-tetrahydroquinazoline-6-sulfonamide] yielded an IC50 of under 50 nM.
`CC(C)C(=O)N1CCN(c2cc(S(=O)(=O)NC3(C)CCC3)cc3c2cnn3-c2nnc(C(F)F)s2)CC1` [Example 21, 1-(5-(difluoromethyl)-1,3,4-thiadiazol-2-yl)-4-(4-isobutyrylpiperazin-1-yl)-N-(1-methylcyclobutyl)-1H-indazole-6-sulfonamide] was tested, and the IC50 was 50 to 500 nM.
